Assay results taken from ChEMBL document CHEMBL4507276 (2021).

Experiments:
Settings in all cases: Compound concentration 1000.0 nM
[1] = system: Epidermal growth factor receptor (Homo sapiens), P00533 [UNDEFINED MUTATION]
[2] = target: T1, Serine/threonine-protein kinase D3 (Homo sapiens) (UniProt O94806)
T1 sequence (whole entry): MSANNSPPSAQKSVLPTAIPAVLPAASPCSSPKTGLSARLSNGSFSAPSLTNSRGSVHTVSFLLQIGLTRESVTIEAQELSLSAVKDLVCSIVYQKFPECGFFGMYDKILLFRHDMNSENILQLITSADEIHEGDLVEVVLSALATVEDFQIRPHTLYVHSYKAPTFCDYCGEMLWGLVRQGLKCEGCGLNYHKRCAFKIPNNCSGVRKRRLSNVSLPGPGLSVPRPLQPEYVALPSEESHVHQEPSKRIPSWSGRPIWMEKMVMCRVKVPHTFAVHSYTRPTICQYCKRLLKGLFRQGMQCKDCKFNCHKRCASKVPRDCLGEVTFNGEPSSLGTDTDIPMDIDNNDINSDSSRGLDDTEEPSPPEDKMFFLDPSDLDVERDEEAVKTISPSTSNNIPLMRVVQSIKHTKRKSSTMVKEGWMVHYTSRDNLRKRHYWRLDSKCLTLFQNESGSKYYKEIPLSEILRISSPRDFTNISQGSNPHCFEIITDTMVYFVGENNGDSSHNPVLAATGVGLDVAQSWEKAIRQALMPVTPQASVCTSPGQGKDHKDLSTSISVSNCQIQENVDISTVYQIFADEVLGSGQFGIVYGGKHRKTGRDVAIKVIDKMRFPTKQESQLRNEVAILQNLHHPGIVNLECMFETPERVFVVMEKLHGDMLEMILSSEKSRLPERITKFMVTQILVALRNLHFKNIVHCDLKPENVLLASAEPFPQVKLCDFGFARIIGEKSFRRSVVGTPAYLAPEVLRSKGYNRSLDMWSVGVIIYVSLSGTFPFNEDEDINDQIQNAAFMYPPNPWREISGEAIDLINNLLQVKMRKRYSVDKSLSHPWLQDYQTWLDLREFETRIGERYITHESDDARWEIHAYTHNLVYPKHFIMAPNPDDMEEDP

[3] = system: Hepatocyte growth factor receptor (Homo sapiens), P08581 [Y1235D]
[4] = target: T2, Activin receptor type-1 (Homo sapiens) (UniProt Q04771)
T2 sequence (whole entry): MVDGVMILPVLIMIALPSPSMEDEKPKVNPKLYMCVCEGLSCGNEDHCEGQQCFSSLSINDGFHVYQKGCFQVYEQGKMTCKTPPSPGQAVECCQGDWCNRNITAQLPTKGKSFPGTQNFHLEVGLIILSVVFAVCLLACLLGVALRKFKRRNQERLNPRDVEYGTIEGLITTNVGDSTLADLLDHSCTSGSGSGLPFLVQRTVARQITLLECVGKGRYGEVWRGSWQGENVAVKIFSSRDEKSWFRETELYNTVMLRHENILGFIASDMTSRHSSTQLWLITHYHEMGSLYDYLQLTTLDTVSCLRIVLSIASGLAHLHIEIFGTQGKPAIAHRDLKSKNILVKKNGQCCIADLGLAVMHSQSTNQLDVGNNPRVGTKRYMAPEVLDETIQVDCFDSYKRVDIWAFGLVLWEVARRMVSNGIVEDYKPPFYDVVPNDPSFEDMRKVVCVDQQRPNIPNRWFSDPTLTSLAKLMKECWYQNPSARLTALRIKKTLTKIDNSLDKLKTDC

[5] = target: Serine/threonine-protein kinase D1 (Homo sapiens) (UniProt Q15139)
[6] = target: Bone morphogenetic protein receptor type-1B (Homo sapiens) (UniProt O00238)
[7] = target: 5'-AMP-activated protein kinase catalytic subunit alpha-2 (Homo sapiens) (UniProt P54646)
[8] = target: Serine/threonine-protein kinase NIM1 (Homo sapiens) (UniProt Q8IY84)
[9] = target: T3, Ephrin type-A receptor 8 (Homo sapiens) (UniProt P29322)
T3 sequence (whole entry): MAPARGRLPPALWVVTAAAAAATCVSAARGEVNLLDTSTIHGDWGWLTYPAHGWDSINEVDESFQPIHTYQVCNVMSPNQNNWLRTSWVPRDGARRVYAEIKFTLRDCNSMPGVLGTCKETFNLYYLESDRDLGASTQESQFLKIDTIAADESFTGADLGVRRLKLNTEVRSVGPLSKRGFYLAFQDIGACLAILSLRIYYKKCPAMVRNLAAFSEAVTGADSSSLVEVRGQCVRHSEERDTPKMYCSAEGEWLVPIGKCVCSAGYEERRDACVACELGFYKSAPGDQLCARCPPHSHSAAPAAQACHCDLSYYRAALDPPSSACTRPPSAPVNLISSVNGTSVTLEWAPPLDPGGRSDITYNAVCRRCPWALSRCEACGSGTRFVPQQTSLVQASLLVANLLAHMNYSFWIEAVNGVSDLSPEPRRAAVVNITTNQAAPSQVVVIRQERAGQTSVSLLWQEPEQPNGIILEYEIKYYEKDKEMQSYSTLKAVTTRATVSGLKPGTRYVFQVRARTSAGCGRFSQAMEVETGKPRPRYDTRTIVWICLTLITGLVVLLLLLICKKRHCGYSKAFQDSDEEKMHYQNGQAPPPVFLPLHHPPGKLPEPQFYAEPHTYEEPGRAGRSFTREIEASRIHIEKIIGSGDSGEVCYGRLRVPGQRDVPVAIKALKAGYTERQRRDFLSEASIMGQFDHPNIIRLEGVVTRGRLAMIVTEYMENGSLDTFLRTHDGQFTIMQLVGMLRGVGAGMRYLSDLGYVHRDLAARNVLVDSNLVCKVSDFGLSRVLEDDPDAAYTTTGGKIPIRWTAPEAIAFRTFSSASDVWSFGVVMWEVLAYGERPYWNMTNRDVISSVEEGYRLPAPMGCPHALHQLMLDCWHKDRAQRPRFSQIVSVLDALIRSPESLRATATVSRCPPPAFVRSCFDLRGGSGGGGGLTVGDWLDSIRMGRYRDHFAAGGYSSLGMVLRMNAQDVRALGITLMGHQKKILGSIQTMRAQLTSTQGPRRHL

Measured: residual activity

Serine/threonine-protein kinase NIM1 (Homo sapiens), sequence (Q8IY84 whole entry): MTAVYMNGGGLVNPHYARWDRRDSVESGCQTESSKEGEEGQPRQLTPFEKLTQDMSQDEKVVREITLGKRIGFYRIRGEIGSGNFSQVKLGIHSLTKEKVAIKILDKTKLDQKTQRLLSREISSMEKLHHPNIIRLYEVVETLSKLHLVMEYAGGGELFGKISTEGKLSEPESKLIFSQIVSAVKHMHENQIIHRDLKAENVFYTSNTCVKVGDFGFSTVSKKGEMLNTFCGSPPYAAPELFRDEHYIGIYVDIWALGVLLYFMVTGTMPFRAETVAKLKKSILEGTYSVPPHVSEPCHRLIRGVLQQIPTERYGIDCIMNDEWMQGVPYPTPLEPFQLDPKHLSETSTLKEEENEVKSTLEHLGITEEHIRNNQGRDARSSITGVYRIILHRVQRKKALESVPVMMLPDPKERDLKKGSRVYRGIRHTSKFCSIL
Serine/threonine-protein kinase D1 (Homo sapiens), sequence (Q15139 whole entry): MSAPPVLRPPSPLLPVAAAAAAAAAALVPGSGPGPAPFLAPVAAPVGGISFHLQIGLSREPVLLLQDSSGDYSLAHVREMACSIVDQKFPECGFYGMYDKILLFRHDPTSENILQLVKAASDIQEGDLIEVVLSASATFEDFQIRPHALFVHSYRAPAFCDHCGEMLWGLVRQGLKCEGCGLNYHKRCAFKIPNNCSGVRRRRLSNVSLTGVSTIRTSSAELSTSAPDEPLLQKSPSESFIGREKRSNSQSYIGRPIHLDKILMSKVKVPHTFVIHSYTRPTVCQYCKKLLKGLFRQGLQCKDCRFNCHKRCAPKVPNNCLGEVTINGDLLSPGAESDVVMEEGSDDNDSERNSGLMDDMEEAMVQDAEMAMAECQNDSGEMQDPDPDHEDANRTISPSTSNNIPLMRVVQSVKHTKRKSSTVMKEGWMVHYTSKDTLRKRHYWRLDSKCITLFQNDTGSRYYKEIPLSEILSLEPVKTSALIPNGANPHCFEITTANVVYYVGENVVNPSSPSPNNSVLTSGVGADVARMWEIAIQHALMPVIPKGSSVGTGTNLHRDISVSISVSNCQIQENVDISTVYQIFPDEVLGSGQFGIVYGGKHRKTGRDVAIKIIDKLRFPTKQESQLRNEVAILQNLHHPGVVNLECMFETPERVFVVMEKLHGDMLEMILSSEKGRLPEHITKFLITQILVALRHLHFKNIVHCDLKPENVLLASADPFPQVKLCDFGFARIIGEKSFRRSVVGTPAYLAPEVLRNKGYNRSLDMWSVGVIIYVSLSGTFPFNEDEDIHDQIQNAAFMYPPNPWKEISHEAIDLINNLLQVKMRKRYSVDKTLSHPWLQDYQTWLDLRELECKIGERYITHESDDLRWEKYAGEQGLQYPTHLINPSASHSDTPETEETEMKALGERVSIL
Bone morphogenetic protein receptor type-1B (Homo sapiens), sequence (O00238 whole entry): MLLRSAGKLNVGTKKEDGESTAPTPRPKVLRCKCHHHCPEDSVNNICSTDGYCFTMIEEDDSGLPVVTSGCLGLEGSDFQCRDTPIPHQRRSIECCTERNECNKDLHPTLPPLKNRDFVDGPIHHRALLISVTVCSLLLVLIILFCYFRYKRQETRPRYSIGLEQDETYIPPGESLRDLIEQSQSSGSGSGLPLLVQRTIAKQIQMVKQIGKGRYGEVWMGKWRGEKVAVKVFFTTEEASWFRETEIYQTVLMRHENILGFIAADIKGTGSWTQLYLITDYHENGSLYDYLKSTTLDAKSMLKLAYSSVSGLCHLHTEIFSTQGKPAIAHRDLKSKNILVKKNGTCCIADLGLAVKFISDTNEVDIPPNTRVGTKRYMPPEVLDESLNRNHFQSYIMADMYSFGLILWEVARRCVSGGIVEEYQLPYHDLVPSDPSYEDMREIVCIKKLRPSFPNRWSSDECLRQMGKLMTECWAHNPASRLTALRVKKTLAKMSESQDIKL
Epidermal growth factor receptor (Homo sapiens), P00533 [UNDEFINED MUTATION], sequence (P00533 whole entry, looked up, change not shown): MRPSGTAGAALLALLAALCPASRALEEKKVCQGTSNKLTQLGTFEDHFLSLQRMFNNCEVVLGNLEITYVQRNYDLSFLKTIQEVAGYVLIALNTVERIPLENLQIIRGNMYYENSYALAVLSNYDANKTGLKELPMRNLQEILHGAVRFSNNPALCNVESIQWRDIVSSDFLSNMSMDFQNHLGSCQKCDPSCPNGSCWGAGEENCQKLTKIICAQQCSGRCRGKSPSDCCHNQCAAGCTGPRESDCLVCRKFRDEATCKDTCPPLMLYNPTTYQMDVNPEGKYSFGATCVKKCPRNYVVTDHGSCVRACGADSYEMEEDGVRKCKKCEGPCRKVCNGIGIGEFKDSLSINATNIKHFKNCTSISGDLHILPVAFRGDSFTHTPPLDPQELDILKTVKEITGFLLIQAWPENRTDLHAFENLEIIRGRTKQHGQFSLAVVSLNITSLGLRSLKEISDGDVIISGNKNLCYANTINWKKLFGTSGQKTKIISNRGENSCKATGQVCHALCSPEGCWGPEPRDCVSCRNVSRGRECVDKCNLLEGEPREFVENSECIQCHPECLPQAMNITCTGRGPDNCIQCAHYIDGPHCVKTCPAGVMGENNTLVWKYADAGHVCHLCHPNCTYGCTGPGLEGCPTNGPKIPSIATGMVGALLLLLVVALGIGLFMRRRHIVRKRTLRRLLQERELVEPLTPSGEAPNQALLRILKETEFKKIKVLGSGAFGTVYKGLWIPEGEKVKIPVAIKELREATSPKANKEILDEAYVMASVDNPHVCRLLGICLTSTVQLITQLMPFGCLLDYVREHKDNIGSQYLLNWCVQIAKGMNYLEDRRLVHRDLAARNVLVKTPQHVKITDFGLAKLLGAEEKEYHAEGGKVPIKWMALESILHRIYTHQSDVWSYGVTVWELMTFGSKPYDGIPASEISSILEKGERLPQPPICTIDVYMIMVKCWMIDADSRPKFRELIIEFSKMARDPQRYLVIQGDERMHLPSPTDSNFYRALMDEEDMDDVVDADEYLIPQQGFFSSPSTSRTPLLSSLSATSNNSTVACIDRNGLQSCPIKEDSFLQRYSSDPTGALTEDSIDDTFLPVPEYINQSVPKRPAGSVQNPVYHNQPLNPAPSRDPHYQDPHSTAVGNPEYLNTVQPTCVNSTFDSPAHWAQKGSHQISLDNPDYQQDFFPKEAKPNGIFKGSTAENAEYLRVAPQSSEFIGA
5'-AMP-activated protein kinase catalytic subunit alpha-2 (Homo sapiens), sequence (P54646 whole entry, looked up): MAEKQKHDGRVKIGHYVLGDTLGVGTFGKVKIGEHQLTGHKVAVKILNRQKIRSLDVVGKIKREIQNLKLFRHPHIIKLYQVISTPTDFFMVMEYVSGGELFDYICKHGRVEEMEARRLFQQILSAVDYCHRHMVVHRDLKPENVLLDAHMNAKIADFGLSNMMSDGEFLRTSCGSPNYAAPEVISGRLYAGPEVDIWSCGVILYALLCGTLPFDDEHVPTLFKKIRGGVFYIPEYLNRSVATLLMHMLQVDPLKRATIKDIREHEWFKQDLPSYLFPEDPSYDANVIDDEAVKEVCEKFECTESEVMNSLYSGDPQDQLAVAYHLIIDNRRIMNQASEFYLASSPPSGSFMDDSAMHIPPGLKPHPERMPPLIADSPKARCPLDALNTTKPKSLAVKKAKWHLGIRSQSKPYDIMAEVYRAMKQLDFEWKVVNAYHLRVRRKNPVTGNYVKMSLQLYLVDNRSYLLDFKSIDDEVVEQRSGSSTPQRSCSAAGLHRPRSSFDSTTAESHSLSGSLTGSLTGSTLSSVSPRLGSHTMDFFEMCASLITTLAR

CN(C)C(=O)Cn1cc(-c2nc(C3(c4ccc(-c5cnc(N)nc5)cc4)CC3)no2)cn1 [BI 0153]
inactive: [1] 79% | [2] 92% | [3] 98% | [4] 95% | [5] 100% | [6] 99% | [7] 86% | [8] 83% | [9] 87%

CN(C)C(=O)Cn1cc(-c2nc([C@@](C)(c3ccc(-c4cnc(N)nc4)cc3)C3CC3)no2)cn1 [BI 665915]
inactive: [1] 75% | [2] 100% | [3] 96% | [4] 84% | [5] 100% | [6] 76% | [7] 100% | [8] 86% | [9] 100%
